Reference: publication PMC4513130, “Neuronal Calcium Sensor-1 Binds the D2 Dopamine Receptor and G-protein-coupled Receptor Kinase 1 (GRK1) Peptides Using Different Modes of Interactions” (The Journal of Biological Chemistry, 2015)

What was measured:
[1] = Solubility and aggregation
[2] = system: NCS-1ΔCT; experiment: NMR (1H-15N HSQC) of Ca2+/NCS-1ΔCT, titration with D2R peptide; assay type: binding, rat; details: 15N Ca2+/NCS-1ΔCT alone
Protocol: NCS-1 was prepared in 50 mM Tris-HCl buffer, pH 6.8, in the presence of 5 mM MgCl2 and 5 mM CaCl2. NMR spectra were recorded at 27 °C on Bruker DRX 800 and 600 MHz Avance II spectrometers equipped with CryoProbes. Data were processed using the Bruker software TopSpin and analyzed using CCPN software ([26]). Sequence-specific backbones were obtained using the HNCA, HN(CO)CA, HNCO, HN(CA)CO, CBCA(CO)NH, CBCANH, HBHA(CO)NH, and HCCH-TOCSY experiments.
FIGURE 9. NMR spectra and structure of rat Ca^2+/NCS-1ΔCT (PDB code 4YRU). A,^1H-^15N heteronuclear single quantum coherence spectra of ^15N Ca^2+/NCS-1ΔCT; B, in the presence of 5-fold excess of D2R peptide in 50 mM Tris-HCl buffer, 50 mM NaCl, 5 mM CaCl2, pH 6.5, 298 K. C, structure of the dimer of NCS-1ΔCT. Left, one monomer is shown as a backbone schematic and the other as a surface representation. Right, view of the hydrophobic binding site. Residues from helix 3 and the EF1/EF2 loop (Phe-48–Phe-58) are colored red, and residues in the EF3/EF4 loop region (Val-136–Pro-139) are colored brown. Conserved hydrophobic surface-exposed residues in the N-lobe site, which are involved with binding the D2R peptide, are highlighted in yellow (similar to those highlighted in Fig. 4B). D2R peptide in the N-site is shown with magenta ribbon for comparison. Ca^2+ ions are shown as brown spheres.

[3] = Size exclusion chromatography-multiangle laser light scattering (MALLS); assay type: physicochemical; details: SEC-MALLS, Superdex 75; 20 mM Tris-HCl, 150 mM NaCl, 1 mM CaCl2, pH 7.5; 1.5 mg/ml injected
Protocol: Measurements were performed on a Dionex BioLC HPLC connected to an 18-angle light scattering detector and a differential refractometer (DAWN HELEOS-II and OPTILab rEX, Wyatt). A Superdex 75 10/300 GL column (GE Healthcare) was used in 20 mM Tris-HCl, 150 mM NaCl, 1 mM CaCl2, pH 7.5, at a flow rate of 0.75 ml/min. Sample volumes of 1 ml were injected at a concentration of 1.5 mg/ml. Samples eluting from the column passed through an in-line DAWN HELEOS-II laser photometer (λ = 658 nm) and an OPTILab rEX refractometer with a QELS dynamic light scattering attachment. Light scattering intensity and eluant refractive index (concentration) were analyzed using ASTRA version 5.3.4.13 software to give a weight-averaged molecular mass. To determine the detector delay volumes and normalization coefficients for the MALLS detector, a BSA sample (Sigma A-8531) was used as reference.

[4] = system: NCS-1; experiment: Crystal structure of peptide complex with Ca2+/NCS-1 (copies bound, buried surface area); assay type: binding, Rattus norvegicus
Protocol: Purified proteins were equilibrated against 20 mM Tris-HCl, pH 7.5, and concentrated to 1 mM final protein concentration before initiating crystallization trials. For crystallization of the peptide complexes, a 2-fold excess of peptide was added to the protein solution. Crystals were grown at 20 °C using the sitting drop vapor diffusion method. NCS-1 was crystallized in 0.1 M sodium cacodylate, pH 6.5, 0.2 M sodium acetate, and 30% (w/v) PEG 8000, similar to the conditions previously reported ([27]). […]
For the NCS-1·D2R complex, molecular replacement used the structure of human NCS-1 (human and rat NCS-1 have 99% sequence identity; PDB accession 1G8I) and PHASER ([31]), as implemented from within PHENIX ([32]). […] At this stage, electron density for the helix for chain B was readily apparent, and a model for the helix was built in manually using COOT ([33]). […]
The structure of the NCS-1·GRK1 complex was determined using the coordinates from the A chain of the NCS-1 apoprotein and the program MOLREP ([38]), as implemented from within the CCP4 program suite ([39]). […] Electron density for a single GRK1 peptide per NCS-1 monomer, in a helical conformation, was readily detectable. […]
Data for NCS-1ΔCT were processed using MOSFLM ([37]) and SCALA ([30]). […] The four molecular copies of NCS-1ΔCT in this crystal form were readily identified in this way. […]

[5] = system: recoverin; details: NMR structure, PDB 2I94; orientation opposite to that in NCS-1·GRK1 complex; cited from earlier work
Source text: The C-terminal α-helix in both complexes form one edge of the hydrophobic groove. […] Somewhat surprising are the differences observed between the NCS-1 ...

TFNIEFRKAFLKILHC [reference compound]
solubility ([1]; in water): insoluble in water

NCS-1ΔCT: C-terminal truncated mutant of NCS-1, residues Ser-178–Val-190 deleted
NMR spectra of NCS-1ΔCT [2]: significant concentration-dependent line broadening
solution state [3]: polydisperse

MDFGSLETVVANSAFIAARGSFDGS [GRK1 peptide]
buried surface area of peptide ([4]; GRK1 peptide in hydrophobic groove, PDB 5AFP): 921 Å^2
copies of peptide bound per NCS-1 molecule ([4]; crystal structure, Ca2+/NCS-1, 2-fold excess of peptide): one
binding site on recoverin [5]: binding only in the N-lobe site
aggregation [1]: propensity to aggregate
